From patent US9187496B2 (priority 2009, dated 2015)
Like-named read-outs stand apart in the source and are kept apart here.

Columns and labels:
[1] = test system: Huh-7 cells containing HCV Con1 subgenomic replicon (GS4.1 cells); experiment: HCV replicon assay (NS5A ELISA); format: cell-based
Method: General Procedure: Huh-7 cells containing HCV Con1 subgenomic replicon (GS4.1 cells) were grown in Dulbecco's Modified Eagle Medium (DMEM) supplemented with 10% fetal bovine serum (FBS), 2 mM L-glutamine, 110 mg/L sodium pyruvate, 1× non-essential amino acids, 100 U/mL penicillin-streptomycin, and 0.5 mg/mL G418 (Invitrogen). For dose-response testing, the cells were seeded in 96-well plates at 7.5×10^3 cells/well in a volume of 50 μL, and incubated at 37° C./5% CO2. Three hours after plating, 50 μL of ten 2-fold serial dilutions of compounds (highest concentration, 75 μM) were added, and cell cultures were incubated at 37° C./5% CO2 in the presence of 0.5% DMSO. Alternatively, compounds were tested at a single concentration of 15 μM. In all cases, Huh-7 cells lacking the HCV replicon served as negative control. The cells were incubated in the presence of compounds for 72 hrs after which they were monitored for expression of the NS5A protein by enzyme-linked immunosorbent assay (ELISA). For this, the plates were then fixed for 1 min with acetone/methanol (1:1, v/v), washed twice with phosphate-buffered saline (PBS), 0.1% Tween 20, blocked for 1 hr at room temperature with TNE buffer containing 10% FBS and then incubated for 2 hr at 37° C. with the anti-NS5A mouse monoclonal antibody A-236 (ViroGen) diluted in the same buffer. After washing three times with PBS, 0.1% Tween 20, the cells were incubated 1 hr at 37° C. with anti-mouse immunoglobulin G-peroxidase conjugate in TNE, 10% FBS. After washing as described above, the reaction was developed with O-phenylenediamine (Zymed). The reaction was stopped after 30 min with 2 N H2SO4, and absorbance was read at 492 nm using Sunrise Tecan spectrophotometer. EC50 values were determined from the % inhibition versus concentration data using a sigmoidal non-linear regression analysis based on four parameters with Tecan Magellan software.

GS4.1 cells = experiment: Cytotoxicity evaluation in GS4.1 cells (Cell Titer 96 AQueous One); format: cell-based, human; details: cellular viability
Method: For cytotoxicity evaluation, GS4.1 cells were treated with compounds as described above and cellular viability was monitored using the Cell Titer 96 AQueous One Solution Cell Proliferation Assay (Promega). CC50 values were determined from the % cytotoxicity versus concentration data with Tecan Magellan software as described above.

[2] = Hepatitis C virus, Huh-7, GS4.1 cells, 72 hrs, NS5A ELISA, read-out: EC50
[3] = GS4.1 cells, 72 hrs, NS5A ELISA, read-out: EC50

| SMILES | EC50 [1, 2] [nM] | CC50 (GS4.1 cells) [nM] | EC50 [1, 3] [nM] | EC50 ([1]; Hepatitis C virus, Huh-7, 72 h) [nM] |
| --- | --- | --- | --- | --- |
| COC(=O)N[C@H](C(=O)N1CCCC1c1ncc(-c2cn3cc(-c4ccc(-c5cnc([C@@H]6CCCN6C(=O)[C@@H](NC(=O)OC)C(C)C)[nH]5)cc4)nc3s2)[nH]1)C(C)C (stereo partly shown) [A7] | < 1 | > 75000 |  |  |
| CC(C)(C)OC(=O)N[C@@H](C(=O)N1CCC[C@H]1C(=O)Nc1cn2cc(-c3ccccc3)sc2n1)c1ccccc1 [A27] | 10 to 100 | > 75000 |  |  |
| CC(C)(C)OC(=O)Nc1ccc(-c2cn3cc(NC(=O)[C@@H]4CCCN4C(=O)[C@H](NC(=O)OC(C)(C)C)c4ccccc4)nc3s2)cc1 [A29] | > 100 | 10000 to 75000 |  |  |
| COC(=O)N[C@H](C(=O)N1CCC[C@H]1c1ncc(-c2ccc(-c3cn4cc(NC(=O)C5CCCN5C(=O)CNC(=O)OC(C)(C)C)nc4s3)cc2)[nH]1)C(C)C (stereo partly shown) [A31] | 10 to 100 | > 75000 |  |  |
| COC(=O)N[C@H](C(=O)N1CCC[C@H]1C(=O)Nc1ccc(-c2cn3cc(NC(=O)C4CCCN4C(=O)[C@@H](NC(=O)OC)C(C)C)nc3s2)cc1)c1ccccc1 (stereo partly shown) [A32] | < 1 | > 75000 |  |  |
| COC(=O)N[C@H](C(=O)N1CCC[C@H]1c1ncc(-c2ccc(-c3cn4cc(-c5cnc(C6CCCN6C(=O)[C@@H](NC(=O)OC(C)(C)C)c6ccccc6)[nH]5)nc4s3)cc2)[nH]1)C(C)C (stereo partly shown) [A33] | < 1 | > 75000 |  |  |
| COC(=O)N[C@H](C(=O)N1CCC[C@H]1C(=O)Nc1ccc(-c2cn3cc(NC(=O)OC(C)(C)C)nc3s2)cc1)C(C)C [A34] |  | 10000 to 75000 | 1 to 10 |  |
| COC(=O)N[C@H](C(=O)N1CCCC1c1ncc(-c2ccc(-c3csc4c(-c5cnc(C6CCCN6C(=O)OCc6ccccc6)[nH]5)csc34)cc2)[nH]1)C(C)C (stereo partly shown) [A49] | < 1 | > 75000 |  |  |
| COC(=O)N[C@H](C(=O)N1CCC[C@H]1c1ncc(-c2ccc(-c3cn4cc(NC(=O)[C@@H]5CCCN5C(=O)[C@H](NC(=O)OC(C)C)c5ccccc5)nc4s3)cc2)[nH]1)C(C)C [A56] | < 1 | > 75000 |  |  |
| COC(=O)N[C@H](C(=O)N1CCC[C@H]1c1ncc(-c2ccc(-c3cn4cc(NC(=O)[C@@H]5CCCN5C(=O)[C@H](NC(=O)OCC(C)C)c5ccccc5)nc4s3)cc2)[nH]1)C(C)C [A57] |  | > 75000 | < 1 |  |
| COC(=O)N[C@H](C(=O)N1CCCC1c1ncc(-c2ccc(-c3csc4c(-c5cnc(C6CCCN6C(=O)[C@@H](NC(=O)OC(C)(C)C)C(C)C)[nH]5)csc34)cc2)[nH]1)C(C)C (stereo partly shown) [A76] | < 1 | > 75000 |  |  |
| COC(=O)N[C@H](C(=O)N1CCCC1c1ncc(-c2ccc(-c3csc4c(-c5cnc(C6CCCN6C(=O)[C@H](NC(=O)OC)C(C)C)[nH]5)csc34)cc2)[nH]1)C(C)C (stereo partly shown) [A77] | < 1 | > 75000 |  |  |
| COC(=O)N[C@H](C(=O)N1CCCC1c1ncc(-c2csc3c(-c4ccc(-c5cnc(C6CCCN6C(=O)[C@@H](NC(=O)OC)C(C)C)[nH]5)cc4)csc23)[nH]1)c1ccccc1 (stereo partly shown) [A78] | < 1 | > 75000 |  |  |
| COC(=O)N[C@@H](C(=O)N1CCC[C@H]1C(=O)Nc1ccc(-c2cn3cc(NC(=O)[C@@H]4CCCN4C(=O)[C@H](NC(=O)OC)c4ccccc4)nc3s2)cc1)c1ccccc1 [A79] |  | > 75000 | < 1 |  |
| COC(=O)N[C@@H](C(=O)N1CCC[C@H]1C(=O)Nc1ccc(C#Cc2cn3cc(NC(=O)[C@@H]4CCCN4C(=O)[C@H](NC(=O)OC)c4ccccc4)nc3s2)cc1)c1ccccc1 [A80] |  | > 75000 | < 1 |  |
| COC(=O)N[C@H](C(=O)N1CCCC1c1cc(-c2ccc(-c3csc4c(-c5ccc(-c6cnc(C7CCCN7C(=O)[C@@H](NC(=O)OC)C(C)C)[nH]6)cc5)csc34)cc2)[nH]n1)C(C)C (stereo partly shown) [A87] | < 1 | > 75000 |  |  |
| COC(=O)N[C@H](C(=O)N1CCCC1c1nc(-c2ccc(-c3cn4cc(-c5ccc(-c6cnc([C@@H]7CCCN7C(=O)[C@@H](NC(=O)OC)C(C)C)[nH]6)cc5)sc4n3)cc2)c[nH]1)C(C)C (stereo partly shown) [A93] | < 1 | > 75000 |  |  |
| COC(=O)N[C@H](C(=O)N1CCCC1c1ncc(-c2ccc(-c3csc4c(-c5ccccc5)csc34)cc2)[nH]1)C(C)C (stereo partly shown) [A103] | 1 to 10 | 10000 to 75000 |  |  |
| COC(=O)N[C@H](C(=O)N1CCCC1c1nc(-c2ccc(-c3sc4cc(-c5ccc(-c6cnc([C@@H]7CCCN7C(=O)[C@@H](NC(=O)OC)C(C)C)[nH]6)cc5)sc4c3-c3ccc(-c4cnc(C5CCCN5C(=O)[C@@H](NC(=O)OC)C(C)C)[nH]4)cc3)cc2)c[nH]1)C(C)C (stereo partly shown) [A105] |  | 10000 to 75000 |  | 10 to 100 |

| SMILES | EC50 [1, 2] [nM] | CC50 (GS4.1 cells) [nM] | EC50 [1, 3] [nM] | EC50 ([1]; Hepatitis C virus, Huh-7, 72 h) [nM] |
| --- | --- | --- | --- | --- |
| COC(=O)N[C@H](C(=O)N1CCCC1c1ncc(-c2cc3sc(-c4ncc(-c5c[nH]c([C@@H]6CCCN6C(=O)[C@@H](NC(=O)OC)C(C)C)n5)s4)cc3s2)[nH]1)C(C)C (stereo partly shown) [A130] | < 1 | > 75000 |  |  |
| COC(=O)N[C@H](C(=O)N1CCC[C@H]1C(=O)Nc1cn2cc(-c3ccc(NC(=O)CNC(=O)[C@H](NC(=O)OC(C)(C)C)c4ccccc4)cc3)sc2n1)C(C)C [A147] | 10 to 100 | > 75000 |  |  |
| COC(=O)N[C@H](C(=O)N1CCC[C@H]1c1ncc(-c2ccc(-c3cn4cc(NC(=O)CNC(=O)[C@H](NC(=O)OC(C)(C)C)c5ccccc5)nc4s3)cc2)[nH]1)C(C)C [A148] | 1 to 10 | > 75000 |  |  |
| COC(=O)N[C@H](C(=O)N1CCC[C@H]1C(=O)Nc1cn2cc(-c3cccc(NC(=O)[C@@H]4CCCN4C(=O)[C@H](NC(=O)OC)c4ccccc4)c3)sc2n1)C(C)C [A149] | 10 to 100 | 10000 to 75000 |  |  |
| COC(=O)N[C@H](C(=O)N1CCC[C@H]1c1ncc(-c2ccc(-c3cn4cc(NC(=O)[C@@H]5CCCN5)nc4s3)cc2)[nH]1)C(C)C [A150] |  | 10000 to 75000 | 10 to 100 |  |
| COC(=O)N[C@H](C(=O)N1CCCC1c1ncc(-c2ccc(-c3csc4c(-c5cnc(C6CCCN6C(=O)OC(C)(C)C)[nH]5)csc34)cc2)[nH]1)C(C)C (stereo partly shown) [A151] |  | 10000 to 75000 | < 1 |  |
| CC(C)(C)OC(=O)N1CCCC1c1ncc(-c2cn3cc(-c4ccc(Cl)cc4)sc3n2)[nH]1 (stereo not shown) [A152] | > 100 | 10000 to 75000 |  |  |
| COC(=O)N[C@H](C(=O)N1CCCC1c1ncc(-c2ccc(-c3ccc(-c4nc5sccn5c4Cl)cc3)cc2)[nH]1)C(C)C (stereo partly shown) [A154] | 10 to 100 | 10000 to 75000 |  |  |
| COC(=O)N[C@H](C(=O)N1CCC[C@H]1c1cc(-c2ccc(-c3cn4cc(NC(=O)[C@@H]5CCCN5C(=O)[C@H](NC(=O)OC(C)C)c5ccccc5)nc4s3)cc2)[nH]n1)C(C)C [A156] | < 1 | > 75000 |  |  |
| CC(C)(C)OC(=O)N1CCCC1c1nc(-c2ccc(-c3cn4cc(-c5ccc(-c6cnc([C@@H]7CCCN7C(=O)OC(C)(C)C)[nH]6)cc5)sc4n3)cc2)c[nH]1 (stereo partly shown) [A157] | 10 to 100 | > 75000 |  |  |
| COC(=O)N[C@H](C(=O)N1CCCC1c1nc(-c2ccc(-c3cc4sc(-c5ccc(-c6cnc([C@@H]7CCCN7C(=O)[C@@H](NC(=O)OC)C(C)C)[nH]6)cc5)cc4s3)cc2)c[nH]1)C(C)C (stereo partly shown) [A159] | < 1 | > 75000 |  |  |
| COC(=O)N[C@H](C(=O)N1CCCC1c1ncc(-c2ccc(-c3cn4ccsc4n3)cc2)[nH]1)C(C)C (stereo partly shown) [A160] | 10 to 100 | > 75000 |  |  |
| CC(C)(C)OC(=O)N1CCCC1c1ncc(-c2ccc(-c3nc4sccn4c3Cl)cc2)[nH]1 (stereo not shown) [A161] | > 100 | > 75000 |  |  |
| COC(=O)N[C@H](C(=O)N1CCCC1c1ncc(-c2ccc(-c3cn4c(-c5ccccc5)csc4n3)cc2)[nH]1)C(C)C (stereo partly shown) [A162] | 1 to 10 | 10000 to 75000 |  |  |
| COC(=O)N[C@H](C(=O)N1CCCC1c1ncc(-c2ccc(-c3csc4cc(C(=O)OC)[nH]c34)cc2)[nH]1)C(C)C (stereo partly shown) [A164] | 10 to 100 | 10000 to 75000 |  |  |
| CC(C)(C)OC(=O)N1CCCC1c1ncc(-c2ccc(-c3cn4ccsc4n3)cc2)[nH]1 (stereo not shown) [A167] | > 100 |  |  |  |
| COC(=O)N[C@H](C(=O)N1CCCC1c1ncc(-c2ccc(-c3cc4sc(Br)cc4s3)cc2)[nH]1)C(C)C (stereo partly shown) [A168] | 10 to 100 | 10000 to 75000 |  |  |
| COC(=O)N[C@H](C(=O)N1CCC[C@H]1c1ncc(-c2ccc(-c3cn4cc(NC(=O)[C@@H]5CCCN5C(=O)[C@H](NC(=O)OC(C)(C)C)c5ccccc5)nc4s3)cc2)[nH]1)C(C)C [Compound A1, (S,S,S,R)-[1-(2-{5-[4-(6-{[1-(2-tert-butoxycarbonylamino-2-phenyl-acetyl)-pyrrolidine-2-carbonyl]-amino}imidazo[2,1-b]thiazol-2-yl)-phenyl]-1H-imidazol-2-yl}pyrrolidine-1-carbonyl)-2-methyl-propyl]-carbamic acid methyl ester] | < 1 | > 75000 |  |  |
